Test results as given in patent US7019034B2, “Compositions and methods for reducing serum glucose and triglyceride levels in diabetic mammals” (Allergan, Inc., priority 2003, dated 2006).

Key:
RXRβ = biological target: T1, RXRβ (UniProt P28704); experiment: holoreceptor transactivation assay, RXRβ; assay type: cell-based
T1 sequence (P28704 1-520): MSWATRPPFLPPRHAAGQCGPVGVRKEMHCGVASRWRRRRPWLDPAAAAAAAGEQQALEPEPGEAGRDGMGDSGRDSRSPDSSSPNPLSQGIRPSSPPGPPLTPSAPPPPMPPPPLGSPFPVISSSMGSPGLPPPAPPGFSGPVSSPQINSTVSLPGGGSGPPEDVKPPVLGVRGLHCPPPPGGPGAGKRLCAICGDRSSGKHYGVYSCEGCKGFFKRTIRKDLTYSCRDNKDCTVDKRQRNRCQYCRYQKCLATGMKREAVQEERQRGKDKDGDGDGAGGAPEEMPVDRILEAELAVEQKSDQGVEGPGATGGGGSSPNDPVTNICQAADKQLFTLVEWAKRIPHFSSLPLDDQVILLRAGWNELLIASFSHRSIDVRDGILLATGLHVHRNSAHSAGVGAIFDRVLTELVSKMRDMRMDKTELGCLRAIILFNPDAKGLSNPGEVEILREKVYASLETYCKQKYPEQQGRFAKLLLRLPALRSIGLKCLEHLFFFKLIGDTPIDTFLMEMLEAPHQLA
Excerpt: The results obtained in this assay are expressed in EC50 numbers, as they are also in the chimeric receptor transactivation assay. The results of the ligand binding assay are expressed in Ki numbers.
(§1) Particularly, the transactivation data pertaining to activation of the RAR receptors were obtained in the chimeric assay, and the transactivation data pertaining to the activation of RXR receptors were obtained in the holoreceptor assay.
(§2) In Table 1 NA stands for not active at all as an agonist. ND stands for not determined. The first row of numbers pertaining to each compound is the measured EC50 number. […] The third row of numbers pertaining to each compound is the binding Ki number.

diabetic db/db mice [1] = experiment: serum triglycerides in diabetic db/db mice, 7 days oral dosing; assay type: in vivo; conditions: for Triglycerides: 10 mg/kg once daily oral gavage, mean +/- SD
Protocol: (§3) Effects of RXR agonists on serum glucose and triglyceride were studied in diabetic db/db mice. […] Briefly, animals were dosed once daily by oral gavage using corn oil vehicle for a period of 7 consecutive days. Serum samples were collected on day 1 (first day of dosing) and day 7 at hour 0 (immediately prior to dosing) and hour 3 (approximately 3 hours after dosing). Serum glucose and triglyceride levels of these samples were measured as described in the reference manuals: Glucose/HK. Boehringer Mannheim Corporation, 9115 Hague Road, Indianapolis, Ind., USA and Triglycerides/GPO. Roche Diagnostics Corporation, 9115 Hague Road, Indianapolis, Ind., USA, expressly incorporated herein. Only those animals with glucose levels of higher than 300 mg/dl at 0 hour on day 1 were considered as diabetic and included in data analysis.
(§4) A measured amount of dosing solution was withdrawn into a metal feeding tube attached to a marked syringe. Animals were restrained by grasping of their back skin while the feeding tube was gently inserted into their mouth and into esophagus. A fixed amount of the dosing solution was displaced into the esophagus/stomach of the animal by pushing the plunger of the syringe. Serum samples were collected from the retro-orbital sinus while the animals were anesthetized. These samples were analyzed by using commercially available kits from Boehringer Manheim for their glucose levels and Roche Diagnostics for their triglyceride levels in a Boehringer Manheim Hatachi Clinical Chemistry Analyzer.
(§5) For glucose assay, an enzymatic reaction using hexokinase and glucose-6-phosphodehydrogenase to catalyze glucose to gluconate-6phosphate and NADPH was employed. The amount of NADPH formed during these reactions was equivalent to the amount of glucose in the serum and was measured with a spectrophotometer. For triglycerides, a series of enzymatic reactions which included lipase, glycerol kinase and glycerol phosphate oxidase to formed dihydroacetone phosphate and peroxidase. The peroxidase produced catalyzed a reaction between peroxide and 4-aminophenazone and 4-chlorophenol in a Trinder reaction to generate a color change. This color change was measured by a spectrophotometer and reflected the amount of triglyceride in the sample.

RXRα = biological target: T2, RXRα (Homo sapiens, UniProt P19793); experiment: holoreceptor transactivation assay, RXRα; assay type: cell-based; conditions: number in brackets
T2 construct: expressed in transfected cells
T2 sequence (P19793 1-462): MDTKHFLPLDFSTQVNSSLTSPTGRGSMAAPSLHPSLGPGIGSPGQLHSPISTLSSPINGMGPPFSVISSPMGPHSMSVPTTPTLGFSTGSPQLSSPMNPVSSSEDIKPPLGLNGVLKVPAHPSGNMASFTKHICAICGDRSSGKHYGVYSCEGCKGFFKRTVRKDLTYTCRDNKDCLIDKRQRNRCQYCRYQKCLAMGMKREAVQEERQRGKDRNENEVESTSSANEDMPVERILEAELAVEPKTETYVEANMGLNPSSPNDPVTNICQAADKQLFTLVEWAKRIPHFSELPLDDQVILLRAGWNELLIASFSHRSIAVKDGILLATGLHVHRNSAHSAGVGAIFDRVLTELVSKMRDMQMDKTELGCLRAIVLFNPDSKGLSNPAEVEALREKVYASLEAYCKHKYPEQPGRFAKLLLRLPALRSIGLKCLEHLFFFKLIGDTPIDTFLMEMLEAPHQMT
Excerpt: A holoreceptor transactivation assay and a ligand binding assay which measure the antagonist/agonist like activity of the compounds of the invention, or their ability to bind to the several retinoid receptor subtypes, respectively, are described in published PCT Application No. WO WO93/11755 (particularly on pages 30–33 and 37–41) published on Jun. 24, 1993, the specification of which is also incorporated herein by reference. […] The results obtained in this assay are expressed in EC50 numbers, as they are also in the chimeric receptor transactivation assay. The results of the ligand binding assay are expressed in Ki numbers. (See Cheng et al. Biochemical Pharmacology Vol. 22 pp 3099–3108, expressly incorporated herein by reference.)
as §1, §2

diabetic db/db mice [2] = experiment: serum glucose in diabetic db/db mice, 7 days oral dosing; assay type: in vivo; conditions: for Glucose: 10 mg/kg once daily oral gavage, mean +/- SD
Protocol: as §3, §4, §5

young db/db mice = experiment: serum thyroxine (T4) in young db/db mice, 14 days oral dosing; assay type: in vivo
Protocol: In another study the efficacy of RXR agonists in the prevention of diabetes was tested in young db/db mice. […] Serum samples were analyzed by using commercially available kits from Boehring Manheim for their thyroxine (T4) levels in a Boehringer Manheim Hatachi Clinical Chemistry Analyzer as described in the reference manual of Boehringer Mannheim Corporation, 9115 Hague Road, Indianapolis, Ind., USA, expressly incorporated herein.

[3] = Day 1, 0 hr (immediately prior to dosing)

## CC(/C=C/[C@@H]1C[C@]1(C)c1ccc2c(c1)C(C)(C)CCC2(C)C)=C\C(=O)O [Standard compound, (2E,4E,1′S,2′S)-3-methyl-5-[2′-methyl-2′-(5,5,8,8-tetramethyl-5,6,7,8-tetrahydro-naphthalen-2-yl)-cyclopropyl]-penta-2,4-dienoic acid, reference compound]
RXRβ
  RXR β efficacy in percentage as compared to the standard compound: 0.4(100)1%
  efficacy in activating RXRβ compared with RXRα and RXRγ subtypes (in words): approximately equally efficacious in activating the RXRα, RXRβ and RXRγ subtypes
Diabetic db/db mice [1]; [3]
  Triglycerides: 183 ± 50 mg/dL
Diabetic db/db mice [1]; Day 1, 3 hr
  Triglycerides: 220 ± 87 mg/dL
Diabetic db/db mice [1]; Day 7, 0 hr
  Triglycerides: 137 ± 32 mg/dL
Diabetic db/db mice [1]; mouse, in vivo
  effect on serum triglyceride (in words): induces hypertriglyceridemia
RXRα
  RXR α efficacy in percentage as compared to the standard compound: 100%
Diabetic db/db mice [2]; [3]
  Glucose: 501 ± 87 mg/dL
Diabetic db/db mice [2]; Day 1, 3 hr
  Glucose: 403 ± 86 mg/dL
Diabetic db/db mice [2]; Day 7, 0 hr
  Glucose: 367 ± 101 mg/dL
Diabetic db/db mice [2]; Day 7, 3 hr
  Glucose: 301 ± 40 mg/dL
Diabetic db/db mice [2]; mouse, in vivo
  effect on serum glucose in diabetic mouse (in words): capable of lowering serum glucose
Young db/db mice; 5 mg/kg orally for 14 days, mean +/- SD (n = 7)
  Serum thyroxine: 0.83 ± 0.29 µg/dL
Young db/db mice; mouse, in vivo
  effect on serum T4 (in words): lowering serum T4
